Target: T1, hGBP1^311 (Homo sapiens, UniProt P32455)
T1 construct: gene GBP1; truncated, without the helical domain; purified as previously reported
T1 sequence (P32455 1-311): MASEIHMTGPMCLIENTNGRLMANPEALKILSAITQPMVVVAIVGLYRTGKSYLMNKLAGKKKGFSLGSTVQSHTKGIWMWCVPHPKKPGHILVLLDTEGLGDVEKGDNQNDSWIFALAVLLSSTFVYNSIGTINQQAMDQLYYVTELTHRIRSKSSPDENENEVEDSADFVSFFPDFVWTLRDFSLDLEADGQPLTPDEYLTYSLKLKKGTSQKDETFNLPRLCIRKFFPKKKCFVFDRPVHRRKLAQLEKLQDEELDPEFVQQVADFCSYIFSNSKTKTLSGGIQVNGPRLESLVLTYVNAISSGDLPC
Assay: radiolabelled [α-32P]GTP, thin-layer chromatography
Format: biochemical
Details: Tris pH 7.5, 5 mM MgCl2, 37 °C

Q: Which “radiolabelled [α-32P]GTP, thin-layer chromatography” value does the source give for `Nc1nc2c(ncn2[C@@H]2O[C@H](COP(=O)(O)OP(=O)(O)OP(=O)(O)O)[C@@H](O)[C@H]2O)c(=O)[nH]1` [GTP] here?
A: the deletion of the helical domain of hGBP1 significantly reduced GMP production

Source: PMC10910063, “Helical domain of hGBP3 cannot stimulate the second phosphate cleavage of GTP” (The Journal of Biological Chemistry, 2024)
